Experiments:
[1] = Body weight gain of mice before and after treatment; conditions: allopurinol 40 mg/kg·d, colchicine 1 mg/kg·d, extract 500 mg/kg·d
[2] = test system: acute gouty arthritis mice; assay: Paw swelling degree in MSU-induced acute gouty arthritis mice; format: in vivo
Description: Livers of the mice are taken and kept in a temperature of −80° C. for later use. The normal control group of mice is injected with 0.1 mL of physiological saline onto right foot pad of the mice after 1 h gavage on the 7th day. […] 0 h, 4 h, 8 h, 12 h and 24 h after the MSU crystal suspension injection, paw volumes of the mice are measured by using the paw volume measuring instrument, the paw swelling degrees of the mice are calculated, and the calculation formula is as follows: [formula] • where Ct represents a paw volume at different time points after injection, and Co represents a paw volume at 0 h after injection.

[3] = target: xanthine oxidase (XOD, or XO) (Homo sapiens, UniProt P47989); assay: Inhibitory effect of extracts/liquid-liquid extracts on XOD activity in vitro (96-well plate, absorbance at 295 nm); format: biochemical; conditions: tested samples as 1 mg/mL solution, allopurinol positive control 2 mg in 1 mL DMSO + 8 mL PBS
Chain of xanthine oxidase (XOD, or XO) (P47989 whole entry, species assumed): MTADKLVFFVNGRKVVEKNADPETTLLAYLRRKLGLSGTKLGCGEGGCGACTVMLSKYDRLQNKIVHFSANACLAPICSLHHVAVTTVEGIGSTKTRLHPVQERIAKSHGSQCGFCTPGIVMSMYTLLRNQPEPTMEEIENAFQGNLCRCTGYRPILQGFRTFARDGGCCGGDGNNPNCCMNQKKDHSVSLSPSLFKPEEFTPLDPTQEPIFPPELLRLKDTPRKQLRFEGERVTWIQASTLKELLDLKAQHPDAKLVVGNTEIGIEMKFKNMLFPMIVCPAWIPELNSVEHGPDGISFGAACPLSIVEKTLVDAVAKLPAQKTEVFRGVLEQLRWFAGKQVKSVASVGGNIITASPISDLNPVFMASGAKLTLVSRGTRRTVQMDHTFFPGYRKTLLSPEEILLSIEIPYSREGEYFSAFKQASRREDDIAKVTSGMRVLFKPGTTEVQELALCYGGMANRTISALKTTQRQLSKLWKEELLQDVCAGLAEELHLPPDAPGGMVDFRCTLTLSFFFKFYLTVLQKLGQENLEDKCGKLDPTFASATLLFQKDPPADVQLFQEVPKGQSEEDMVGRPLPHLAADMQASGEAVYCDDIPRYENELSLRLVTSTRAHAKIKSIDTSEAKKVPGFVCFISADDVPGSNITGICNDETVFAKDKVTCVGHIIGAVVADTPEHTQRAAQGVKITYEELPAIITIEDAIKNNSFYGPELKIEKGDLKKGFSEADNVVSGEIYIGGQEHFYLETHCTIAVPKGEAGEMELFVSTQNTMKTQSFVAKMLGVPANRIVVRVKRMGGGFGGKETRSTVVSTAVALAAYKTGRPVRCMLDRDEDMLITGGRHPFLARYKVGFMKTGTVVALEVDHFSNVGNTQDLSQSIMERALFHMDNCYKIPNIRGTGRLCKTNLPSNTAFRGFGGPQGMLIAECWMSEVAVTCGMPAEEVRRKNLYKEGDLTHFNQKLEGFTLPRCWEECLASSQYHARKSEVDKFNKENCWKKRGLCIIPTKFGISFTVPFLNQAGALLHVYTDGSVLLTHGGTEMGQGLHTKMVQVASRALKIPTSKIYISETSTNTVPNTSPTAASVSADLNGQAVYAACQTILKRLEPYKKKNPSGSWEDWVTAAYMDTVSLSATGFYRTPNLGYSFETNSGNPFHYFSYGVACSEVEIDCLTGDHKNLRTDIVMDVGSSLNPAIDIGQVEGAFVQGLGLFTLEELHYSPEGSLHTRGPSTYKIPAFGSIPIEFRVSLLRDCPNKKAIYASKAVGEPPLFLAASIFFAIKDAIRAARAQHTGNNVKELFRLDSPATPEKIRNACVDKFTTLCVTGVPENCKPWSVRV
Description: 2.1 Buffer solution preparation: 0.4780 g of potassium phosphate monobasic (KH2PO4), 3.473 g of dipotassium hydrogen phosphate trihydrate (K2HPO4·3H2O) and 10.00 milligrams (mg) of ethylenediaminetetraacetic acid disodium salt (EDTA-2Na) are accurately weighed, and then placed in a 250 mL volumetric flask, and diluted to volume with distilled water to obtain the buffer solution. 2.2 Substrate preparation: 3.65 mg of xanthine is accurately weighed, and then added into the buffer solution to dilute to volume of 50 mL, and the xanthine is dissolved with ultrasound to obtain the substrate. 2.3 Enzyme solution preparation: XOD (5 units abbreviated as U) is taken and diluted with 50 mL of the buffer solution to obtain a diluted solution, and the diluted solution is subpackaged in sample bottles to obtain the enzyme solution, and kept in a temperature of −70 Celsius degree (° C.) for later use. […] After that the solution is filtered with a microporous filter membrane to obtain the samples to be tested for later use. 2.6 XOD activity determination: […] […] 2.8 A half maximal inhibitory concentration (IC50) value measurement: the active portion is prepared into 7 series concentrations to explore a dose-effect relationship based on results of the activity test, and IC50 value of the active portion is calculated through a GraphPad prism 8 software.

hyperuricemia mice = assay: Serum uric acid level in hyperuricemia mice; format: in vivo; conditions: gavage 7 days
serum XOD = target: T1, serum XOD (Rattus norvegicus, UniProt P22985); assay: Serum XOD activity in hyperuricemia rats; format: in vivo; conditions: model group 30 U/L
T1 construct: The activity of the serum XOD of hyperuricemia in rats is measured by using the colorimetry; from tissue; host or cells: serum of hyperuricemia rats
T1 sequence (P22985 whole entry): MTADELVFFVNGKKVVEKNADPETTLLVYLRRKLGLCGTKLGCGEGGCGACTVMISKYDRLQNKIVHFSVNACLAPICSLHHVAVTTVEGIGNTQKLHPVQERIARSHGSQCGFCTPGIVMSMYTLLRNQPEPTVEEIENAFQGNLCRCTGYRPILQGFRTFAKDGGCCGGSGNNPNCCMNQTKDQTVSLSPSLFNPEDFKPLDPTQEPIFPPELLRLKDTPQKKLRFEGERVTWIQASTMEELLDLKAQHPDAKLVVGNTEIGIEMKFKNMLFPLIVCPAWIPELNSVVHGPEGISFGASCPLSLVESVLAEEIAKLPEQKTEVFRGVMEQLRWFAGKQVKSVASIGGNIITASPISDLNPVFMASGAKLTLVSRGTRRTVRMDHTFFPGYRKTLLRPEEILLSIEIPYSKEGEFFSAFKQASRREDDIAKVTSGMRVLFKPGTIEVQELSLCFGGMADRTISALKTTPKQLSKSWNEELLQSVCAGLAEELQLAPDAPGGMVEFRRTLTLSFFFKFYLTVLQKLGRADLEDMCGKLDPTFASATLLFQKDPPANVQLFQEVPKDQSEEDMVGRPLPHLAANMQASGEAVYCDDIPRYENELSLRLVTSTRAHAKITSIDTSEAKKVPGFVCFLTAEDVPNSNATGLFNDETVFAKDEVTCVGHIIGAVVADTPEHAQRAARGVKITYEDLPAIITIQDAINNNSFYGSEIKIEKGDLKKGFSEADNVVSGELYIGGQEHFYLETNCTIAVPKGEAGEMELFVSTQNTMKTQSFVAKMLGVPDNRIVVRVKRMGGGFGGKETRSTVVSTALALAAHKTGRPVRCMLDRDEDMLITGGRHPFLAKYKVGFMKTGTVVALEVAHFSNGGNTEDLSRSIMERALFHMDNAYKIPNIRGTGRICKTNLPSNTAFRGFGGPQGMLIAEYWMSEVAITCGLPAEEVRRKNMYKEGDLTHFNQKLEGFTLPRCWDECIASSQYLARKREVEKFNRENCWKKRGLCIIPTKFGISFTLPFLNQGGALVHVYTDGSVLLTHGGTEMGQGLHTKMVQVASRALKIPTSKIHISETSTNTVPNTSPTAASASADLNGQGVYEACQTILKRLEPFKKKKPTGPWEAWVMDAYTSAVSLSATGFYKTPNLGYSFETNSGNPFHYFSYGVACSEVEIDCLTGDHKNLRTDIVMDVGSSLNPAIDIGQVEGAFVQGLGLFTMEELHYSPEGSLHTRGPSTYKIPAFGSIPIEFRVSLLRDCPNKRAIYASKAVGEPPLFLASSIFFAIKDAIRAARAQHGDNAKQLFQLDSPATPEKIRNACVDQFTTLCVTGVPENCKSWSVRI

Compound | weight gain compared to the normal control group [1] | decrease of paw swelling degree compared with the model group ([2]; 24 h after MSU injection) | decrease of paw swelling degree compared with the model group ([2]; at 4 h, 8 h, 12 h and 24 h) | inhibition rate on activity of the XOD [3] | decrease of serum uric acid level compared to the model group (hyperuricemia mice) | serum uric acid level (hyperuricemia mice; model 286.82 μmol/L) | serum XOD activity compared to the model group (serum XOD)
COc1cc2c(c(OC)c1OC)-c1ccc(OC)c(=O)cc1[C@@H](NC(C)=O)CC2 [colchicine] | significantly lower | 15.32% | more than 9% |  |  |  | 
Oc1ncnc2[nH]ncc12 [allopurinol] |  |  |  | 96.78% | 75.16% | 68.72 µmol/L | significantly decreases

Source: patent US20250249060A1, “APPLICATION METHOD OF ACTIVE PORTION OF LIGUSTICUM CHUANXIONG IN PREPARATION OF ANTI-GOUT DRUG” (Shaanxi University of Chinese Medicine, priority 2024, published 2025)
